Data reported in patent US6187802A, “Substituted 4-arylmethylene-2-imino-2,3-dihydrothiazoles and derivatives and their pharmaceutical use” (Knoll Aktiengesellschaft, priority 1997, dated 2001).
Where a name gives a salt, the structure may show the parent alone.

Experiments:
[1] = target: T1, 5-hydroxytryptamine (5-HT) reuptake sites (Rattus norvegicus, UniProt P31652); test: displacement of [3H]paroxetine from 5-HT reuptake sites, frontal cortical membranes; format: binding; conditions: 10^-6 M test compound, [3H]paroxetine 30 pM, one test only, read-out: 5-HT uptake (% displacement of specific binding of tritiated ligand)
T1 construct: Frontal cortical tissue from the brains of male Sprague-Dawley rats; from tissue; host or cells: rat brain frontal cortex (crude synaptosomes in A2, washed membranes in A5)
Description: Frontal cortical tissue from the brains of male Charles River rats weighing 150-250 g was homogenised in ice-cold 0.25M sucrose (1:30 w/v) using a Kinematic polytron (speed setting 6 for 30 seconds) and centrifuged at 1000 g for 12 minutes. The supernatant was stored on ice and the pellet was resuspended in 0.25M sucrose (1:20 w/v) and centrifuged at 850 g for 10 minutes. Combined supernatants were diluted to 1:100 w/v with ice-cold 50 mM Tris-HCl, pH 7.5 (at 25° C.) containing 120 mM sodium chloride and 5 mM potassium chloride (Tris buffer) and centrifuged at 40,000 g for 10 minutes. The resulting pellet was resuspended in 50 mM Tris buffer (1:100 w/v) and recentrifuged at 40,000 g for 10 minutes. The final pellet was resuspended in 50 mM Tris buffer (equivalent to 2 mg wet weight of tissue/ml) and used immediately in the binding assay. All centrifugations were carried out at 4° C.
Membranes (1000 μl; equivalent to 2 mg wet weight of tissue/tube) were incubated with 200 μl [^3 H]paroxetine at a single concentration of 30 pM and 200 μl of distilled water (total binding) or 200 μl of test compound (10^-6 M) or 200 μl of citalopram (1 μM; non-specific binding) for 2 h at 22° C.
Membrane bound radioactivity was recovered by filtration under vacuum through Whatman GFIC filters using a Brandel cell harvester. Filters were rapidly washed with 16 ml ice-cold 50 mM Tris buffer and radioactivity determined by liquid scintillation counting (2 ml Packard MV Gold scintillator).
(§1) For each of these tests measuring the ability of compounds of Formula I to displace standard ligands from dopamine (DA), 5-hydroxytryptamine (5-HT) and noradrenaline (NA) reuptake sites in vitro, the percentage displacement of specific binding of tritiated ligand by 10^-6 M test compound was calculated in the following way:
(§2) Firstly, specific binding of tritiated ligand in the absence (A) and presence (B) of test compound was determined:
(§3) In the absence of compound:
(§4) A (dpm)=Total binding (dpm)-Non-specific binding (dpm)
(§5) In the presence of compound (10^-6 M):
(§6) B (dpm)=Binding at 10^-6 M (dpm)-Non-specific binding (dpm)
(§7) The specific binding of tritiated ligand in the presence (B) of compound was then converted to a percentage of specific binding of tritiated ligand in the absence (A) of compound:
(§8) % Specific binding at 10^-6 M=B (dpm)/A(dpm)×100
(§9) The percentage displacement of specific binding of trtiated ligand by the test compound (10^-6 M) was then obtained by subtraction of the percentage specific binding in the presence of compound from the percentage specific binding in the absence of compound, which is taken as the maximum binding and so equals 100%:
(§10) % Displacement at 10^-6 M=100-% Specific binding at 10^-6 M.
(§11) The values given below in Table 2 for examples 6 to 76 are % displacement of specific binding of tritiated ligand by 10^-6 M test compound and represent results from one test only. IA refers to <50% displacement.

[2] = target: T2, noradrenaline (NA) reuptake sites (Rattus norvegicus, UniProt Q63380); test: displacement of [3H]nisoxetine from noradrenaline reuptake sites, frontal cortical membranes; conditions: 10^-6 M test compound, [3H]nisoxetine 0.6 nM, one test only, read-out: NA uptake (% displacement of specific binding of tritiated ligand)
T2 construct: Frontal cortical tissue from the brains of male Sprague-Dawley rats; from tissue; host or cells: rat brain frontal cortex (crude synaptosomes in A3, washed membranes in A6)
Description: Frontal cortical tissue from the brains of male Charles River rats weighing 150-250 g was homogenised in ice-cold 50 mM Tris-HCl, pH 7.4 (at 25° C.) containing 120 mM sodium chloride and 5 mM potassium chloride (Tris buffer; 1:60 w/v) using a Kinematic polytron (speed setting 6 for 30 seconds) and centrifuged at 40,000 g for 10 minutes. The supernatant was discarded and the pellet rehomogenised in Tris buffer, 1:60 w/v, and centrifuged at 40,000 g for 10 minutes. This step was repeated twice more so that, in total, the brain tissue was homogenised and centrifuged four times. The final pellet was resuspended in 50 mM Tris-HCl, pH 7.4 containing 300 mM sodium chloride and 5 mM potassium chloride (equivalent to 25 mg wet weight of tissue/ml) and used immediately in the binding assay. All centrifugations were performed at 4° C.
Membranes (400 μl; equivalent to 10 mg wet weight of tissue/tube) were incubated with 50 μl [^3 H]nisoxetine at a single concentration of 0.6 nM and 50 μl of distilled water (total binding) or 50 μl of test compound (10^-6 M) or 50 μl of mazindol (1 μM; non-specific binding) for 4 h at 4° C.
Membrane bound radioactivity was recovered by filtration under vacuum through Skatron 11734 filters using a Skatron cell harvester. Filters were rapidly washed with ice-cold 50 mM Tris-HCl, pH 7.4 containing 120 mM sodium chloride and 5 mM potassium chloride (wash setting 9,9,0) and radioactivity determined by liquid scintillation counting (1 ml Packard MV Gold scintillator).
as §1, §2, §3, §4, §5, §6, §7, §8, §9, §10, §11

[3] = target: T3, dopamine (DA) reuptake sites (Rattus norvegicus, UniProt P23977); test: displacement of [3H]GBR 12935 from dopamine reuptake sites, striatal membranes; format: binding; conditions: 10^-6 M test compound, [3H]GBR 12935 1 nM, one test only, read-out: DA uptake (% displacement of specific binding of tritiated ligand)
T3 construct: Striatal tissue from the brains of male Charles River rats weighing 150-250 g; from tissue; host or cells: rat brain striatum (crude synaptosomes in A1, washed membranes in A4)
Description: Striatal tissue from the brains of male Charles River rats weighing 150-250 g was homogenised in ice-cold 0.32M sucrose (1:80 w/v) using a motor driven teflon pestle (12 strokes, 800 rpm) and centrifuged at 1000 g for 12 minutes. The supernatant was stored on ice and the pellet was resuspended in 0.32M sucrose (1:80 w/v) and centrifuged at 850 g for 10 minutes. Combined supernatants were diluted to 1:320 w/v with ice-cold 50 mM Tris-HCl, pH 7.4 (at 25° C.) containing 200 mM sodium chloride and 5 mM potassium chloride (Tris buffer) and centrifuged at 40,000 g for 10 minutes. The resulting pellet was resuspended in 10 ml of 50 mM Tris buffer, incubated at 37° C. for 10 min, diluted in 50 mM Tris buffer (1:320 w/v) and recentrifuged at 40,000 g for 10 minutes. The final pellet was resuspended in 50 mM Tris buffer (equivalent to 1.25 mg wet weight of tissue/ml) and used immediately in the binding assay. All centrifugations were carried out at 4° C.
Membranes (800 μl; equivalent to 1 mg wet weight of tissue/tube) were incubated with 100 μl [^3 H]GBR 12935 at a single concentration of 1 nM and 100 μl of distilled water (total binding) or 100 μl of test compound (10^-6 M) or 100 μl of mazindol (1 μM; non-specific binding) for 90 min at 4° C.
Membrane bound radioactivity was recovered by filtration under vacuum through Whatman GF/C filters, pre-soaked for 1 h in 0.5% polyethylenimine,using a Brandel cell harvester. Filters were rapidly washed with 16 ml of ice-cold 50 mM Tris-HCl, pH 7.4 and radioactivity determined by liquid scintillation counting (2 ml Packard MV Gold scintillator).
as §1, §2, §3, §4, §5, §6, §7, §8, §9, §10, §11

T1 sequence (P31652 whole entry): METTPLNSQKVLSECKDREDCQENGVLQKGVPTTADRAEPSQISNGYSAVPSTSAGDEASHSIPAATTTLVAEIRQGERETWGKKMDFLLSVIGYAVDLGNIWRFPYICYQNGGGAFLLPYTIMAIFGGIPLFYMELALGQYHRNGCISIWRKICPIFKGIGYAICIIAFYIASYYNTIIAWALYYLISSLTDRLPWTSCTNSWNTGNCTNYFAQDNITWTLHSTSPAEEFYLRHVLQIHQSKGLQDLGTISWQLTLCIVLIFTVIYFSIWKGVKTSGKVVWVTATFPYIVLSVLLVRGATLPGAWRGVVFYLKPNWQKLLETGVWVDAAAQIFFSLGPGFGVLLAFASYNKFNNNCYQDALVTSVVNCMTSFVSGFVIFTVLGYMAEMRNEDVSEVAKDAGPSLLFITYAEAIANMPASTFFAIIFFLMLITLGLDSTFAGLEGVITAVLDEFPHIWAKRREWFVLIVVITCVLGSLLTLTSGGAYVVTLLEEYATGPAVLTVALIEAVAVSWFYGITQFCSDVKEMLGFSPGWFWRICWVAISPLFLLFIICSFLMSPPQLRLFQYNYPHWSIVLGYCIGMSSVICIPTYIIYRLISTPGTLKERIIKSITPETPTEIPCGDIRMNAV
T3 sequence (P23977 whole entry): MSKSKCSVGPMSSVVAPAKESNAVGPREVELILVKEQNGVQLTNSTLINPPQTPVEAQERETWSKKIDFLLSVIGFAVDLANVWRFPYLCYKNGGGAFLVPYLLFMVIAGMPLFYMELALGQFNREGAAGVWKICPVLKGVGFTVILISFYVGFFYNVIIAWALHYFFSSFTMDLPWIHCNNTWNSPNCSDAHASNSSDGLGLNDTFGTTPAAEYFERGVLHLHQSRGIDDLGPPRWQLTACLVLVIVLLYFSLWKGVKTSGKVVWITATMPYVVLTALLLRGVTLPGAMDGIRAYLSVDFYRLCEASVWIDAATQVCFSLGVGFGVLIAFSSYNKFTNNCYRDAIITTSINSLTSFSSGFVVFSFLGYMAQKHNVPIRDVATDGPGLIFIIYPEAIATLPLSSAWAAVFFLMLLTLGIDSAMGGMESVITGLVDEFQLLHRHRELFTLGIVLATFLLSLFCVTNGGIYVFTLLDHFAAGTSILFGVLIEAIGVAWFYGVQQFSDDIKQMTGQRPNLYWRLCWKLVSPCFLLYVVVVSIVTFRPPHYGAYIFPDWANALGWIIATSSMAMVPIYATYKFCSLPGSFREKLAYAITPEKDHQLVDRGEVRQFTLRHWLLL
T2 sequence (Q63380 1-617): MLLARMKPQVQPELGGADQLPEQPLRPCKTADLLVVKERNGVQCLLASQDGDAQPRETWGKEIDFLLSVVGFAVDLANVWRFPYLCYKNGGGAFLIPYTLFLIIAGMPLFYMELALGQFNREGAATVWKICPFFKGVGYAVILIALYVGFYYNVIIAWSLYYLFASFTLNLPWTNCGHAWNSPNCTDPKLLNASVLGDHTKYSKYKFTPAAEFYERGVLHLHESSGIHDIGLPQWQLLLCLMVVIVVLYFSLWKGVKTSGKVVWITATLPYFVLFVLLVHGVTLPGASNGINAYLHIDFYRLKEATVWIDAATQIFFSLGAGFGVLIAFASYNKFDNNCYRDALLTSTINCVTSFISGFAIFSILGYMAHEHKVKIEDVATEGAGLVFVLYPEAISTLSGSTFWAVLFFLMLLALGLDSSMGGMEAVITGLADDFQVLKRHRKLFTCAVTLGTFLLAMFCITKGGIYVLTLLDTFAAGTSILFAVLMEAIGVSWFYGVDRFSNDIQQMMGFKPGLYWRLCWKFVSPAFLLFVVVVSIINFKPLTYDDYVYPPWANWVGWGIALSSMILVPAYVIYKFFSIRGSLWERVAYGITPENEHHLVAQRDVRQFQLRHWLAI

## Clc1ccc(C2(C3=CSC4=NCCN34)CCCC2)cc1Cl [Example 6, 3-[1-(3,4-dichlorophenyl)cyclopentyl]-5,6-dihydroimidazo[2,1-b]thiazole hydrobromide]
[1]
  inhibition at 1 µM: 86%
[2]
  inhibition at 1 µM: 101%
[3]
  inhibition at 1 µM: 112%

## CCCCN=c1scc(C(C)(C)c2ccc(Cl)cc2)n1CCCC [Example 62, 3-Butyl-2-butylimino-4-[1-(4-chlorophenyl)-1-methylethyl]-2,3-dihydrothiazole hydrobromide]
[1]
  inhibition at 1 µM: < 50%
[2]
  inhibition at 1 µM: < 50%
[3]
  inhibition at 1 µM: 55%

## CCCCN=c1scc(C2(c3ccc(Cl)cc3)CCCC2)n1CCCC [Example 60, 3-Butyl-2-butylimino-4-[1-(4-chlorophenyl)cyclopentyl]-2,3-dihydrothiazole hydrobromide]
[1]
  inhibition at 1 µM: < 50%
[2]
  inhibition at 1 µM: < 50%
[3]
  inhibition at 1 µM: 106%

## Fc1ccc(CN=c2scc(C3(c4ccc(Cl)c(Cl)c4)CCC3)n2Cc2ccc(F)cc2)cc1 [Example 23, 4-[1-(3,4-Dichlorophenyl)cyclobutyl]-3-(4-fluorobenzyl)-2-(4-fluorobenzylimino)-2,3-dihydrothiazole hydrobromide]
[1]
  inhibition at 1 µM: < 50%
[2]
  inhibition at 1 µM: < 50%
[3]
  inhibition at 1 µM: 83%

## CCCCN=c1scc(C2(c3ccc(Cl)c(Cl)c3)CCC2)n1CCCC [Example 18, 3-Butyl-2-butylimino-4-[1-(3,4-dichlorophenyl)cyclobutyl]-2,3-dihydrothiazole hydrobromide]
[1]
  inhibition at 1 µM: 95%
[2]
  inhibition at 1 µM: 63%
[3]
  inhibition at 1 µM: 106%

## Clc1ccc(C2(c3csc(=Nc4ccccc4)n3-c3ccccc3)CCC2)cc1Cl [Example 27, 4-[1-(3,4-Dichlorophenyl)cyclobutyl]-3-phenyl-2-phenylimino-2,3-dihydrothiazole hydrobromide]
[1]
  inhibition at 1 µM: < 50%
[2]
  inhibition at 1 µM: < 50%
[3]
  inhibition at 1 µM: 84%

## CCCCN=c1scc(C2(c3ccc(SC)cc3)CCC2)n1CCCC [Example 58, 3-Butyl-2-butylimino-4-[1-(4-methylthiophenyl)cyclobutyl]-2,3-dihydrothiazole hydrobromide]
[1]
  inhibition at 1 µM: < 50%
[2]
  inhibition at 1 µM: < 50%
[3]
  inhibition at 1 µM: 92%

## Clc1ccc(C2=C(C3(c4ccc(Cl)c(Cl)c4)CCC3)N3CCN=C3S2)cc1 [Example 10, 2-(4-chlorophenyl)-3-[1-(3,4-dichlorophenyl)cyclobutyl]-5,6-dihydroimidazo[2,1-b]thiazole hydrobromide]
[1]
  inhibition at 1 µM: 57%
[2]
  inhibition at 1 µM: < 50%
[3]
  inhibition at 1 µM: 85%

## Fc1cccc(C2(C3=CSC4=NCCN34)CCC2)c1 [Example 75, 3-[1-(3-Fluorophenyl)cyclobutyl]-5,6-dihydroimidazo[2,1-b]thiazole hydrobromide]
[1]
  inhibition at 1 µM: 53%
[2]
  inhibition at 1 µM: < 50%
[3]
  inhibition at 1 µM: < 50%

## Clc1ccc(C2(c3csc(=NCc4ccccc4)n3Cc3ccccc3)CCC2)cc1Cl [Example 22, 3-Benzyl-2-benzylimino-4-[1-(3,4-dichlorophenyl)cyclobutyl]-2,3-dihydrothiazole hydrobromide]
[1]
  inhibition at 1 µM: < 50%
[2]
  inhibition at 1 µM: < 50%
[3]
  inhibition at 1 µM: 79%

## Cc1ccccc1N=c1scc(C2(c3ccc4ccccc4c3)CCC2)n1-c1ccccc1C [Example 51, 4-[1-(2-Naphthyl)cyclobutyl)-3-(o-tolyl)-2-(o-tolylimino)-2,3-dihydrothiazole hydrobromide]
[1]
  inhibition at 1 µM: 54%
[2]
  inhibition at 1 µM: < 50%
[3]
  inhibition at 1 µM: 69%

## COCCC1=C(C2(c3ccc(Cl)c(Cl)c3)CCC2)N2CCN=C2S1 [Example 8, 3-[1-(3,4-dichlorophenyl)cyclobutyl]-2-(2-methoxyethyl)-5,6-dihydroimidazo[2,1-b]-thiazole hydrobromide]
[1]
  inhibition at 1 µM: 62%
[2]
  inhibition at 1 µM: < 50%
[3]
  inhibition at 1 µM: < 50%

## CC(C)(C1=CSC2=NCCN12)c1ccc(Cl)cc1 [Example 73, 3-[1-(4-Chlorophenyl)-1-methylethyl]-5,6-dihydroimidazo[2,1-b]thiazole hydrobromide]
[1]
  inhibition at 1 µM: < 50%
[2]
  inhibition at 1 µM: < 50%
[3]
  inhibition at 1 µM: 59%

## c1ccc(N=c2scc(C3(c4ccc5ccccc5c4)CCC3)n2-c2ccccc2)cc1 [Example 49, 4-[1-(2-Naphthyl)cyclobutyl]-3-phenyl-2-phenylimino-2,3-dihydrothiazole hydrobromide]
[1]
  inhibition at 1 µM: 56%
[2]
  inhibition at 1 µM: < 50%
[3]
  inhibition at 1 µM: 69%

## C1=C(C2(c3ccccc3)CCCCC2)N2CCN=C2S1 [Example 72, 3-(1-Phenylcyclohexyl)-5,6-dihydroimidazo[2,1-b]thiazole hydrobromide]
[1]
  inhibition at 1 µM: < 50%
[2]
  inhibition at 1 µM: < 50%
[3]
  inhibition at 1 µM: 70%

## COc1ccc(CCN=c2scc(C3(c4ccc(Cl)cc4)CCC3)n2CCc2ccc(OC)c(OC)c2)cc1OC [Example 65, 4-[1-(4-Chlorophenyl)cyclobutyl]-3-(3,4-dimethoxyphenethyl)-2-(3,4-dimethoxyphenethylimino)-2,3dihydrothiazole hydrobromide]
[1]
  inhibition at 1 µM: < 50%
[2]
  inhibition at 1 µM: < 50%
[3]
  inhibition at 1 µM: 54%
